The subject of data set [1] is L. braziliensis promastigotes. On the set-up: method as in PMID 25340550. As to conditions: read-out: L. braziliensis Promastigote IC50; cited from earlier work.
For data set [2], the system named is intracellular amastigotes of L. infantum. On the set-up: method as in PMID 27067332. As to conditions: read-out: L. infantum Amastigote IC50; cited from earlier work.
Data set [3] concerns intracellular amastigotes of L. amazonensis. Description: Antiamastigote test, L. amazonensis in mouse peritoneal macrophages. As to conditions: for L. amazonensis SI (Selective Index): CC50 in Macrophages/IC50 in intracellular amastigotes; for IC50: Leishmania amazonensis, Peritoneal macrophage, intracellular amastigotes in mouse peritoneal macrophages, 72 h, infection index, Mean ± SEM, read-out: L. amazonensis Amastigote IC50. It counts as cell-based, Leishmania amazonensis. As for the experimental part: (§1) For the test against intracellular amastigotes of L. amazonensis and L. infantum, resident peritoneal macrophages (swiss mouse) were plated in RPMI (Sigma-Aldrich) at 2 × 10^6/mL (0.4 mL/well) in Lab-Tek eight-chamber slides (Nunc, Roskilde, Denmark) and incubated at 37 °C in 5% CO2 for 1 h. Stationary-phase L. amazonensis and L. infantum promastigotes were added at respective parasite/macrophage ratios of 3:1 and 5:1 for 4 h. After washing three times, pterocarpanquinones 2a-f at various concentrations were added for 72 h. Next, the slides were stained using an Instant Prov hematological dye system (Newprov, Curitiba, Brazil). The number of amastigotes was determined by counting at least 100 macrophages per sample.
(§2) The results were expressed as an infection index (% infected cells×number of amastigotes/total number of macrophages). The 50% inhibitory concentration (IC50) was determined by nonlinear regression analysis in the software GraphPad Prism 5.

Data set [4] has as its system intracellular amastigotes of L. braziliensis. On the set-up: method as in PMID 25340550. The conditions noted are these: read-out: L. braziliensis Amastigote IC50; cited from earlier work.
For data set [5], the system named is L. infantum promastigotes. On the set-up: method as in PMID 27067332. The conditions noted are these: read-out: L. infantum Promastigote IC50; cited from earlier work.
Data set [6] relates to intracellular amastigotes of L. braziliensis. Description: Antiamastigote test, L. braziliensis in golden hamster macrophages. The class given is cell-based. As to conditions: for L. braziliensis SI (Selective Index): CC50 in Macrophages/IC50 in intracellular amastigotes; for IC50: Leishmania braziliensis, Peritoneal macrophage, intracellular amastigotes in golden hamster peritoneal macrophages, 72 h, infection index, Mean ± SEM, read-out: L. braziliensis Amastigote IC50. As for the experimental part:
Macrophages of golden hamsters were used in assays against intracellular amastigotes of L. braziliensis due to the natural resistance of mice. Resident macrophages were obtained from the peritoneal cells of golden hamsters after a peritoneal injection of 10 mL of Dulbecco’s Modified Eagle’s medium (DMEM) (Sigma-Aldrich). The peritoneal macrophages were plated onto glass coverslips placed within the wells of a 24-well culture plate and incubated at 37 °C in 5% CO2 for 1 h. After removing the nonadherent cells, the monolayers were infected with stationary-phase L. braziliensis promastigotes at a 5:1 parasite/macrophage ratio for 4 h. The infected macrophages were washed and incubated with several pterocarpanquinone concentrations (0-25 μM) for 72 h. The monolayers were then stained with Giemsa, and at least 100 infected macrophages per sample were counted under optical microscopy.
as §2

Data set [7] has as its system intracellular amastigotes of L. infantum. As to the kind of experiment: Antiamastigote test, L. infantum in mouse peritoneal macrophages. The conditions noted are these: for IC50: Leishmania infantum, Peritoneal macrophage, intracellular amastigotes in mouse peritoneal macrophages, infection index, Mean ± SEM, read-out: L. infantum Amastigote IC50. It counts as cell-based, Leishmania infantum. As for the experimental part:
as §1, §2

Data set [8] concerns peritoneal macrophages of Swiss mice. On the set-up: method as in PMID 21531758. As to conditions: murine macrophage; cited from earlier work.
Data set [9] concerns L. amazonensis promastigotes. Further details: method as in PMID 21531758. The conditions noted are these: read-out: L. amazonensis Promastigote IC50; cited from earlier work.
In data set [10] the test system is intracellular amastigotes of L. amazonensis. On the set-up: method as in PMID 21531758. The conditions noted are these: read-out: L. amazonensis Amastigote IC50; cited from earlier work.
For data set [11], the system named is promastigotes of L. infantum. Description: Mitochondrial membrane potential (ΔΨm) test (rhodamine 123, flow cytometry). The conditions noted are these: 4 h, Rh123, IV = (MT − MC)/MC, negative = depolarization, mean ± SD. The class given is cell-based, Leishmania infantum. The procedure: To determine the effect of pterocarpanquinones 2a-f on the ΔΨm, promastigotes of L. infantum (5 × 10^6 cells/mL) were incubated in the presence of 0–5 μM of derivatives at 26 °C. After 4 h, the parasites were incubated for 15 min with 10 μg/mL rhodamine 123 (Rh123) (Sigma-Aldrich). Data acquisition of 10,000 events and analysis were performed using the flow cytometer FACSCalibur (Becton-Dickinson, Rutherford, NJ, USA). Alteration in ΔΨm was quantified using an index of variation (IV) obtained by the eq. IV = (MT − MC)/MC [24], where MT is the median of the fluorescence of Rh123 for treated parasites and MC is the median of the fluorescence of the control parasites. Negative IV values correspond to depolarization of the mitochondrial membrane. The FCCP (Carbonyl cyanide-p-Trifluoromethoxyphenylhydrazone) 20 μM was used as positive control.
(In general: In flow cytometry, cells or beads pass a laser one at a time.)

Data set [12] is described as follows: Macrophage toxicity test (resazurin). The class given is cell-based, Swiss mice. The conditions noted are these: mouse; peritoneal macrophages of Swiss mice, 72 h, resazurin, Mean ± SEM; read-out: Murine Macrophage CC50. As for the experimental part: (§3) To evaluate the toxicity of pterocarpanquinones 2a-f, peritoneal macrophages of Swiss mice (2 × 10^6/mL) were incubated with pterocarpanquinones (1.25–100 μM) for 72 h at 37 °C/5% CO2. Viability was evaluated with resazurin assay as described for the antipromastigote test. The 50% cytotoxicity concentration (CC50) was determined by nonlinear regression analysis in the software GraphPad Prism 5.
On the technique in general: Alamar Blue is a resazurin reagent that responds to reducing activity.

Data set [13] has as its system peritoneal macrophages of Swiss mice. As to the kind of experiment: Macrophage toxicity test (resazurin). The class given is cell-based. As for the experimental part:
as §3

Data set [14] deals with L. braziliensis promastigotes. As to the kind of experiment: Antipromastigote test, L. braziliensis. As to conditions: Leishmania braziliensis; 72 h, parasites counted in Neubauer chamber, Mean ± SEM; read-out: L. braziliensis Promastigote IC50. The class given is cell-based. The procedure:
L. braziliensis (MCAN/BR/98/R619) was routinely isolated from hamster lesions and maintained as promastigotes in Schneider’s insect medium containing 20% HIFCS and 100 μg/ml gentamicin (Schering-Plough). New cultures of promastigotes were obtained from an infected hamster.
(§4) Leishmania promastigotes of three species were incubated in 96-well plates (Nunc, Roskilde, Denmark) under the conditions described above in either the absence or presence of different concentrations of pterocarpanquinones 2a-f (0-100 μM). A stock solution of the compounds was prepared at 50 mM in dimethylsulfoxide (Sigma Aldrich). The maximum solvent concentration used in the assays was 0.4% in a final volume per well of 200 μL. The cultures were initiated with 1.0 × 10^6 cells/ml and maintained at 26 °C for 72 h. Inhibition of parasitic growth was determined by cell viability indicator, resazurin [23], with excitation λ = 560 nm and emission λ = 590 nm or the number of parasites was then counted in a Neubauer chamber (experiments with L. braziliensis). The 50% inhibitory concentration (IC50) was determined by nonlinear regression analysis in the software GraphPad Prism 5.

Data set [15] concerns L. infantum promastigotes. Description: Antipromastigote test, L. infantum. It counts as cell-based, Leishmania infantum. As to conditions: Leishmania infantum; 72 h, resazurin, Mean ± SEM; read-out: L. infantum Promastigote IC50. As for the experimental part:
Leishmania infantum (MHOM/MA67ITMAP263) parasites were isolated from female BALB/c mice infected and cultured at 26 °C in Schneider’s insect medium supplemented with 20% HIFCS, streptomycin at 100 μg/ml and penicillin at 100 U/ml. New cultures of promastigotes were obtained from infected Balb/C mice.
as §4

Data set [16] has as its system promastigotes of L. infantum. As to the kind of experiment: Measurement of reactive oxygen species (H2DCFDA). The conditions noted are these: 1.25–5.0 μM. The class given is cell-based, Leishmania infantum. As for the experimental part:
Intracellular ROS levels were measured in treated and untreated cells as described previously. Briefly, 1 × 10^7 promastigotes/mL of L. infantum were incubated in Schneider’s insect medium supplemented with 20% HIFCS at 26 °C with concentrations of pterocarpanquinones 2a-f ranging from 0 to 5 μM in the presence of 20 μM H2DCFDA (Molecular Probes, Eugene, OR, USA). The fluorescence was monitored at 1 h intervals for 4 h using 485 and 530 nm as excitation and emission wavelengths, respectively, using the spectrofluorometer Spectra Max Gemini XPS (Molecular Devices, Silicon Valley, CA, USA). Antimycin A 10 μM was used as positive control.

The test system of data set [17] is L. amazonensis promastigotes. Description: Antipromastigote test, L. amazonensis. The class given is cell-based, Leishmania amazonensis. The conditions noted are these: Leishmania amazonensis; 72 h, resazurin, Mean ± SEM; read-out: L. amazonensis Promastigote IC50. The procedure: New cultures of promastigotes were obtained from infected Balb/C mice. […] A stock solution of the compounds was prepared at 50 mM in dimethylsulfoxide (Sigma Aldrich). The maximum solvent concentration used in the assays was 0.4% in a final volume per well of 200 μL. The cultures were initiated with 1.0 × 10^6 cells/ml and maintained at 26 °C for 72 h. Inhibition of parasitic growth was determined by cell viability indicator, resazurin [23], with excitation λ = 560 nm and emission λ = 590 nm or the number of parasites was then counted in a Neubauer chamber (experiments with L. braziliensis).

Data on 3 molecules can be found in PMC6263544, “Second-generation pterocarpanquinones: synthesis and antileishmanial activity” (The Journal of Venomous Animals and Toxins Including …, 2018).

Read-outs that look alike come from different tables or passages of the source.

For orientation: IC50 means the concentration needed to halve the response being measured. Turning to `O=C1C2=C(C(=O)c3ccccc31)[C@H]1Oc3ccccc3[C@H]1CO2` [LQB-118 (1)], the 50% inhibitory concentration (IC50) in data set [1] was 3.4 µM; in data set [2], 3.25 µM; in data set [4] it was 7.5 µM; in data set [5], 4.08 µM; in data set [9] it was 1.73 µM; in data set [10] it was 1.45 µM. In addition, the “L. amazonensis SI (Selective Index)” value in data set [3] is on record as 12.73. The “L. braziliensis SI (Selective Index)” value in data set [6] stood at 2.46. In addition, in data set [7] (CC50 in Macrophages/IC50 in intracellular amastigotes), the “L. infantum SI (Selective Index)” value stood at 5.68. In addition, the CC50 in data set [8] is 18.5 µM.

For the molecule `O=C1C2=C(C(=O)c3ccccc31)[C@H]1COc3ccc(Cl)cc3[C@H]1O2` [LQB 236 (2c)], the figures for the “Δѱm index of variation (IV)” value in [11] (1.25 μM) and in data set [11] (2.5 μM) were −0.360 ± 0.16 and −0.258 ± 0.17, respectively. For the same molecule, the CC50 at 72 h in data set [12] is 43.9 ± 0.6 µM. Besides, the “increased cytotoxicity when compared to 2b” value in [13] (macrophages) was determined as 2.6 times. Also, the 50% inhibitory concentration (IC50) was 17.9 ± 1.12 µM in data set [14]; 1.8 ± 0.3 µM in [15]; 0.6 ± 0.13 µM in [3]; 8.34 ± 1.47 µM in [6]; over 25 µM in data set [7] (72 h); 1.15 ± 0.18 µM in data set [17]. The “L. amazonensis SI (Selective Index)” value in [3] is given as 73.16. In addition, the “L. braziliensis SI (Selective Index)” value in [6] came to 5.26. For the same molecule, the “ROS production, dependence on concentration” value in data set [16] (4 h) is “only increased ROS production when the parasite was incubated with the highest concentration of 5 μM”. The “Early ROS production after 4 h of treatment” value in [16] (compared with control, listed as 2c) is recorded as “induction of increased ROS production”.

Consider `O=C1C2=C(C(=O)c3ccccc31)[C@H]1COc3cc4c(cc3[C@H]1O2)OCO4` [LQB 168 (2d)], for which the entries for the “Δѱm index of variation (IV)” value in data set [11] (1.25 μM) and in data set [11] (2.5 μM) were −0.369 ± 0.08 and −0.194 ± 0.18, respectively. The CC50 at 72 h in [12] came to 77.7 ± 1.1 µM. Moreover, in [13] (peritoneal macrophages, CC50 77.7 μM vs 18.46 μM), the “fold higher CC50 than LQB-118 (less cytotoxic)” value was 4.2 fold. Besides, the IC50 was 28.2 ± 1.61 µM in data set [14]; 2 ± 0.4 µM in [15]; 0.45 ± 0.06 µM in data set [3]; 7.04 ± 2.29 µM in [6]; over 50 µM in data set [7] (72 h); 1.37 ± 0.04 µM in [17]. Moreover, the “L. amazonensis SI (Selective Index)” value in [3] came to 172.6. Also, the “L. braziliensis SI (Selective Index)” value in data set [6] worked out at 11.03. In [7] (intracellular amastigotes, 72 h), the “activity against L. infantum amastigotes (in words)” value was “no significant activity”.
